Laboratory results reported in US10039845B2, “Labeled inhibitors of prostate specific membrane antigen (PSMA) biological evaluation, and use of imaging agents” (THE JOHNS HOPKINS UNIVERSITY, priority 2007, dated 2018).

Assays:
PSMA = molecular target: T1, PSMA (Homo sapiens, UniProt Q04609); experiment: NAALADase assay (NAAG hydrolysis, LNCaP cell extracts); type: biochemical; conditions: for Ki: LNCaP cell extracts, Cheng-Prusoff conversion, read-out: Ki (PSMA inhibitory activity)
T1 construct: LNCaP cell extracts were prepared by sonication in NAALADase buffer; endogenous in cells; host or cells: LNCaP cell extract (sonicated in 50 mM Tris pH 7.4, 0.5% Triton X-100)
T1 sequence (Q04609 whole entry): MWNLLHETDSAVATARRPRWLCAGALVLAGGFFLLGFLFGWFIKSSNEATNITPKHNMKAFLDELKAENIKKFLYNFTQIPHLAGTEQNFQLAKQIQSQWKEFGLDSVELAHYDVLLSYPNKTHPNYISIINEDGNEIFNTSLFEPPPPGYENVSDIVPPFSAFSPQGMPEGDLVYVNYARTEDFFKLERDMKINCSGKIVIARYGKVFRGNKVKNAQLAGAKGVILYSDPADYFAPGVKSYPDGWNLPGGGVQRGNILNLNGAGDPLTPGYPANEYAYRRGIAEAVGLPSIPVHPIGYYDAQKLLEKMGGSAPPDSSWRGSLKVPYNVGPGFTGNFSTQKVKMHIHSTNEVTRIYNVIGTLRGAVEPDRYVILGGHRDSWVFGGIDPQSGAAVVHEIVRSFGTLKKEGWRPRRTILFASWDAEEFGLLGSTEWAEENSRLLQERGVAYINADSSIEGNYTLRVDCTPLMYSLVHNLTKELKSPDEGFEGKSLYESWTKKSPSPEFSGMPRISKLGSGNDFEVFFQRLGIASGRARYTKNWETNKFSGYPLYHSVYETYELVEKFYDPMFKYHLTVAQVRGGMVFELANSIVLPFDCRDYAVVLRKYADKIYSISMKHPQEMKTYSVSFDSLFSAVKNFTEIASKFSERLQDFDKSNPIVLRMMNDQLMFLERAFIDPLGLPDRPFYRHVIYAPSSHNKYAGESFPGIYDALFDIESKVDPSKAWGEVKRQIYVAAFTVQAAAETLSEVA
Protocol: The relative binding affinities of L1-L7 and ReL1-ReL7, were determined using the N-acetylated-α-linked acidic dipeptidase (NAALADase) assay as previously described.
NAAG hydrolysis was performed essentially as described previously (Robinson, M. B.; et al. J Biol Chem 1987, 262, 14498-14506; Lupold, S. E.; et al. Cancer Res 2002, 62, 4029-4033.). In short, LNCaP cell extracts were prepared by sonication in NAALADase buffer [50 mM Tris (pH 7.4) and 0.5% Triton X-100]. Cell lysates were incubated with or without inhibitor at 37° C. for 10 minutes. Following the incubation the radiolabeled substrate N-acetyl-L-aspartyl-L-(3,4-^3H)glutamate (NEN Life Science Products, Boston, Mass.) was added to a final concentration of 30 nM at 37° C. for 10-15 min. The reaction was stopped by the addition of an equal volume of ice-cold 100 mM sodium phosphate and 2 mM EDTA. Products were partitioned by AG 1-X8 formate resin (Bio-Rad Laboratories) anion exchange chromatography, eluted with 1 M sodium formate, and quantified by liquid scintillation counting. […] Assays were performed in triplicate with the entire inhibition study being repeated at least once to confirm affinity and mode of inhibition. Data were collected during linear phase of hydrolysis (i.e., <20% cleavage of total substrate). Enzyme inhibitory constants (Ki values) were generated using the Cheng-Prusoff conversion (Cheng, Y.; Prusoff, W. H. Biochem Pharmcol 1973, 22, 3099-3108).

[1] = Metabolite studies (HPLC of tissue extracts, plasma, urine); type: in vivo, mice
Protocol: Mice were sacrificed at either 30 min or 1 h postinjection by cervical dislocation and their blood and selected organs were removed. Blood samples were withdrawn using heparinized syringes and tissues were placed on ice prior to manual homogenization in PBS, pH 7.4. Plasma and tissue homogenates in PBS were centrifuged for 2 min at 13,000×g at ambient temperature. A portion of the supernatant was diluted to 4 mL in 8 M urea containing 50 mg citric acid. Urine samples were added directly to 4 mL of the acidified urea solution. Samples then underwent separation by HPLC as previously described (Hilton, J.; et al. Nucl Med Biol 2000, 27, 627-630). Briefly, the 4 mL sample in 8 M acidified urea was passed through a capture column (Strata-X, 19×4.4 mm, Phenomenex, Torrance, Calif.) at 2 mL/min followed by 1% acetonitrile in water to wash plasma proteins from the column. The effluent from the capture column, containing only highly polar components, flowed through a dual BGO detector (Bioscan, Washington, D.C.) operating in the […]. The solvent was then switched to 30% acetonitrile:50 mM phosphate buffer at pH 2.4 (2 mL/min) for elution of the radiolabeled components previously bound to the capture column onto the analytical column (Synergi Polar-RP 250×4.6 mm 10 micron particle size Phenomenex).

[2] = system: PSMA+ PC3 PIP and PSMA− PC3 flu xenografts; conditions: for PIP (PSMA+) tumor uptake on SPECT-CT: SCID mice, 0.5-1 mCi i.v., imaged at 45 min p.i.; for uptake in normal organs (gallbladder, liver, kidneys) on SPECT-CT: mouse, in vivo, iv; for tumor contrast on late SPECT-CT images: several hours after injection (3.5-4 h uptake period)
[3] = system: PSMA+ PC3 PIP and PSMA− PC3 flu xenografts; conditions: mouse, in vivo

Compound: O=C(O)CCC(NC(=O)NC(CCCCN(Cc1ccccn1)Cc1ccccn1)C(=O)O)C(=O)O.[Br-].[C-]#[O+].[C-]#[O+].[C-]#[O+].[Re+] (stereo not drawn) [ReL6, Tricarbonyl(2-{3-[5-(bis-pyridin-2-ylmethyl-amino)-1-carboxy-pentyl]-ureido}-pentanedioic acid)rhenium bromide]
- Ki (PSMA): 200 nM

Compound: O=C(O)CCC(NC(=O)NC(CCCCNC(=O)CCCCCCC(=O)NCCCCCCN(CC(=O)O)Cc1ccccn1)C(=O)O)C(=O)O (centres unmarked) [Compound L4, 2-[3-(1-Carboxy-5-{7-[6-(carboxymethyl-pyridin-2-ylmethyl-amino)-hexylcarbamoyl]-heptanoylamino}-pentyl)-ureido]-pentanedioic acid]
- Ki (PSMA): 2.54 nM

Compound: O=C(O)CCC(NC(=O)NC(CCCCNC(=O)CCCCCCC(=O)NCCCCCCN(Cc1ccccn1)Cc1ccccn1)C(=O)O)C(=O)O (centres unmarked) [Compound L7, 2-[3-(5-{7-[6-(Bis-pyridin-2-ylmethyl-amino)-hexylcarbamoyl]-heptanoylamino}-1-carboxy-pentyl)-ureido]-pentanedioic acid]
- Ki (PSMA): 0.45 nM

Compound: O=C(O)CCC(NC(=O)NC(CCCCNC(=O)CCCCCCC(=O)NCCCCCCN(CC(=O)[O][Re])Cc1ccccn1)C(=O)O)C(=O)O.[C-]#[O+].[C-]#[O+].[C-]#[O+] (stereo not drawn) [ReL4, Tricarbonyl(2-[3-(1-carboxy-5-{7-[6-(carboxymethyl-pyridin-2-ylmethyl-amino)-hexylcarbamoyl]-heptanoylamino}-pentyl)-ureido]-pentanedioic acid) rhenium]
- Ki (PSMA): 0.17 nM
- fold higher PSMA inhibitory potency than ReL7 (PSMA; relative to ReL7): about 12 fold

Compound: O=C(O)CCC(NC(=O)NC(CCCCNC(=O)CCCCCCC(=O)NCCCCCCN(Cc1ccccn1)Cc1ccccn1)C(=O)O)C(=O)O.[Br-].[C-]#[O+].[C-]#[O+].[C-]#[O+].[Re+] (stereo not drawn) [ReL7, Tricarbonyl(2-[3-(5-{7-[6-(Bis-pyridin-2-ylmethyl-amino)-hexylcarbamoyl]-heptanoylamino}-1-carboxy-pentyl)-ureido]-pentanedioic acid)rhenium bromide]
- Ki (PSMA): 2.06 nM

Compound: O=C(O)CCC(NC(=O)NC(CCCCNC(=O)CCCCCCC(=O)NC(CCCCNC(=O)CN1CCN(CC(=O)O)CCN(CC(=O)O)CCN(CC(=O)O)CC1)C(=O)O)C(=O)O)C(=O)O (centres unmarked) [DOTA-L1, 2-{3-[1-Carboxy-5-(7-{1-carboxy-5-[2-(4,7,10-tris-carboxymethyl-1,4,7,10tetraaza-cyclododec-1-yl)-acetylamino]-pentylcarbamoyl}-heptanoylamino)-pentyl]-ureido}-pentanedioic acid]
- IC50 (PSMA): 0.8 nM

Compound: O=C(O)CC[C@H](NC(=O)N[C@@H](CCCCNC(=O)CCCCCCC(=O)N[C@@H](CCCCN(Cc1ccccn1)Cc1ccccn1)C(=O)O)C(=O)O)C(=O)O.[99Tc+].[C-]#[O+].[C-]#[O+].[C-]#[O+] [[^99mTc]L1]
- chromatographed radioactivity as the parent compound ([1]; all other tissue extracts, plasma and urine at 30 and 60 min postinjection): 100%
- extracted radioactivity as a polar metabolite ([1]; mouse kidney extracted 60 min after injection): 2%
- PIP (PSMA+) tumor uptake on SPECT-CT [2]: strongly positive PIP tumor
- uptake in normal organs (gallbladder, liver, kidneys) on SPECT-CT [2]: gallbladder uptake and clear visualization of the kidneys
- tumor contrast on late SPECT-CT images [2]: higher contrast of tumor with respect to background

Compound: Tricarbonyl (2-[3-(5-{7-[5-(bis-pyridin-2-ylmethyl-amino)-1-carboxy-pentylcarbamoyl]-heptanoylamino}-1-carboxy-pentyl)-ureido]-pentanedioic acid) rhenium bromide [ReL1]
- Ki (PSMA): 10.8 nM

Compound: O=C(O)CCC(NC(=O)NC(CCCCNC(=O)CCCCCCC(=O)NCCCCC(C(=O)O)N(Cc1ccccn1)Cc1ccccn1)C(=O)O)C(=O)O (centres unmarked) [Compound L3, 2-[3-(5-{7-[5-(Bis-pyridin-2-ylmethyl-amino)-5-carboxy-pentylcarbamoyl]-heptanoylamino}-1-carboxy-pentyl)-ureido]-pentanedioic acid]
- Ki (PSMA): 1.08 nM

Compound: O=C(O)CCC(NC(=O)NC(CCCCNC(=O)CCCCCCC(=O)NCCCCC(C(=O)O)N(Cc1ccccn1)Cc1ccccn1)C(=O)O)C(=O)O.[99Tc+].[C-]#[O+].[C-]#[O+].[C-]#[O+] (centres unmarked) [[^99mTc]L3]
- PIP:flu uptake ratio, held steady [3]: around 5
- PIP (PSMA+) tumor uptake on SPECT-CT [2]: strong PIP tumor uptake
- uptake in normal organs (gallbladder, liver, kidneys) on SPECT-CT [2]: gallbladder uptake and clear visualization of the kidneys
- tumor contrast on late SPECT-CT images [2]: higher contrast of tumor with respect to background

Compound: O=C(O)CCC(NC(=O)NC(CCCCNC(=O)CCCCCCCN(Cc1ccccn1)Cc1ccccn1)C(=O)O)C(=O)O.[Br-].[C-]#[O+].[C-]#[O+].[C-]#[O+].[Re+] (stereo not drawn) [ReL5, Tricarbonyl(2-(3-{5-[8-(bis-pyridin-2-ylmethyl-amino)-octanoylamino]-1-carboxy-pentyl}-ureido)-pentanedioic acid)rhenium bromide]
- Ki (PSMA): 0.91 nM

Compound: O=C(O)CCC(NC(=O)NC(CCCCNC(=O)CCCCCCC(=O)NCCCCC(C(=O)O)N(Cc1ccccn1)Cc1ccccn1)C(=O)O)C(=O)O.[Br-].[C-]#[O+].[C-]#[O+].[C-]#[O+].[Re+] (stereo not drawn) [ReL3, Tricarbonyl(2-[3-(5-{7-[5-(bis-pyridin-2-ylmethyl-amino)-5-carboxy-pentylcarbamoyl]-heptanoylamino}-1-carboxy-pentyl)-ureido]-pentanedioic acid)rehenium bromide]
- Ki (PSMA): 10.3 nM

Compound: O=C(O)CC[C@H](NC(=O)N[C@@H](CCCCN(Cc1ccccn1)Cc1ccccn1)C(=O)O)C(=O)O.[99Tc+].[C-]#[O+].[C-]#[O+].[C-]#[O+] [[^99mTc]L6]
- PIP (PSMA+) tumor uptake on SPECT-CT [2]: no PIP tumor-specific uptake

Compound: O=C(O)CCC(NC(=O)NC(CCCCNC(=O)CCCCCCCN(Cc1ccccn1)Cc1ccccn1)C(=O)O)C(=O)O (centres unmarked) [Compound L5, 2-(3-{5-[8-(Bis-pyridin-2-ylmethyl-amino)-octanoylamino]-1-carboxy-pentyl}-ureido)-pentanedioic acid]
- Ki (PSMA): 1.86 nM

Compound: O=C(O)CCC(NC(=O)NC(CCCCN(Cc1ccccn1)Cc1ccccn1)C(=O)O)C(=O)O (centres unmarked) [Compound L6, 2-{3-[5-(Bis-pyridin-2-ylmethyl-amino)-1-carboxy-pentyl]-ureido}-pentanedioic acid]
- Ki (PSMA): 7.53 nM

Compound: O=C(O)CC[C@H](NC(=O)N[C@@H](CCCCNC(=O)CCCCCCC(=O)N[C@@H](CCCCN(Cc1ccc2ccccc2n1)Cc1ccc2ccccc2n1)C(=O)O)C(=O)O)C(=O)O.[99Tc+].[C-]#[O+].[C-]#[O+].[C-]#[O+] [[^99mTc]L2]
- PIP (PSMA+) tumor uptake on SPECT-CT [2]: weak PIP tumor uptake
- uptake in normal organs (gallbladder, liver, kidneys) on SPECT-CT [2]: strong gallbladder uptake and kidney uptake

Compound: O=C(O)CC[C@H](NC(=O)N[C@@H](CCCCNC(=O)CCCCCCCN(Cc1ccccn1)Cc1ccccn1)C(=O)O)C(=O)O.[99Tc+].[C-]#[O+].[C-]#[O+].[C-]#[O+] [[^99mTc]L5]
- PIP (PSMA+) tumor uptake on SPECT-CT [2]: qualitatively similar to [^99mTc]L4
